# Test results from patent US8741892B2, “Compounds” (Boehringer Ingelheim International GmbH, priority 2011, dated 2014).
# Target: T1, human recombinant mGluR5 (Homo sapiens, UniProt P41594)
# T1 construct: expressed in transfected cells; host or cells: HEK 293
# Test: positive modulation of mGluR5, calcium based FLIPR assay
# Settings: HEK 293 cell line expressing human recombinant mGluR5; EC50 of the modulation from peak Ca fluorescence signal after glutamate at approx. 5% basal stimulation
# In short: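 HEK 293 cells expressing human recombinant mGluR5, Calcium-4 dye-loaded in Ringer solution pH 7.4. Compound (1% DMSO final) preincubated 5 min, then glutamate at ~5% of maximal effect added; peak Ca2+ fluorescence gives EC50 by nonlinear regression, normalized to DMSO (100%) and 10 μM CDPPB (200%) controls.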
# T1 sequence (P41594 21-1212): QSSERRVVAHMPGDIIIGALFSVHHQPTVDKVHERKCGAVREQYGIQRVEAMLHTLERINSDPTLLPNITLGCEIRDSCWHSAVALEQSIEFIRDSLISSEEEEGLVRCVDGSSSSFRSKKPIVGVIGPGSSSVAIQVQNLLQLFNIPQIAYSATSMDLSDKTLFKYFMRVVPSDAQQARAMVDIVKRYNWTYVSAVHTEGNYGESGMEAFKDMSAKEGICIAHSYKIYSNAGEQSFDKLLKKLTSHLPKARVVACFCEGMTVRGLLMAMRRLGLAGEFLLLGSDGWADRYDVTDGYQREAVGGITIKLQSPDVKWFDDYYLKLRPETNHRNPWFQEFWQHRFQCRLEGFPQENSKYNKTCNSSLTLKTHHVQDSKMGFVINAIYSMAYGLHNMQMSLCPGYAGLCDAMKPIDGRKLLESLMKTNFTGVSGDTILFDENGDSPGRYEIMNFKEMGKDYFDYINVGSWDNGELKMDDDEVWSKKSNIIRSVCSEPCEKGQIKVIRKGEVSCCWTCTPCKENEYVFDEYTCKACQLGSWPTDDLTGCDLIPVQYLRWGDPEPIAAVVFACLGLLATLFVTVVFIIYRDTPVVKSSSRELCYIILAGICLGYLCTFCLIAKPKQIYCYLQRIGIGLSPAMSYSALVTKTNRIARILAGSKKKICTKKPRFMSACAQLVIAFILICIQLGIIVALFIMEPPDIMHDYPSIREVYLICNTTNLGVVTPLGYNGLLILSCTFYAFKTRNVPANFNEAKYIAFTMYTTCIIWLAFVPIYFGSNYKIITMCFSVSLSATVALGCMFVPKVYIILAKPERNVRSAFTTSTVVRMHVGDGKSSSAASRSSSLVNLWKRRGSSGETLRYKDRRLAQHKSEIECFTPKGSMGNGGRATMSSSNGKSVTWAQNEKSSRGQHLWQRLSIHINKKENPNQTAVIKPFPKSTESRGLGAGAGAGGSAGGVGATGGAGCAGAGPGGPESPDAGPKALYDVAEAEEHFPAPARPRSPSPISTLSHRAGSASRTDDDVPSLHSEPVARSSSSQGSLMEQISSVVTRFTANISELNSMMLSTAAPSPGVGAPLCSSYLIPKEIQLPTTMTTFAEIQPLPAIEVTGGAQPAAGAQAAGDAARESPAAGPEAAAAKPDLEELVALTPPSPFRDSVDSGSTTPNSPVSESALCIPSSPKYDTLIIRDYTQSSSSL
row,Structure (SMILES),EC50
1,O=C(Cn1nc(-c2ccccc2)cc1-c1ccccc1)N1CCN(c2noc3ccccc23)CC1 [Example 7.01.016],143 nM
2,CCc1cc(-c2ccc(F)c(C)c2)nn1CC(=O)N1CCc2ncsc2CC1 [Example 7.01.073],84 nM
3,CCc1cc(-c2cccc(Cl)c2)nn1CC(=O)N1CCC(c2nnc(C)o2)CC1 [Example 7.02.113],637 nM
4,CCc1cc(-c2ccc(F)cc2)nn1CC(=O)N1CCc2nc(N)sc2CC1 [Example 7.02.030],1760 nM
5,CCc1cc(-c2ccc(F)cc2)nn1CC(=O)N1CCN(c2cccc(OC)c2)C(=O)C1 [Example 7.02.028],943 nM

# Stronger by EC50, values ahead:
row,EC50,Structure (SMILES)
1,20 nM,Cc1noc(N2CCN(C(=O)Cn3nc(-c4ccc(F)c(C)c4)cc3-c3ccccc3)CC2)n1 [Example 7.02.169]
2,46 nM,CCc1cc(-c2ccc(F)c(C)c2)nn1CC(=O)N1CCc2nc(OC)sc2CC1 [Example 7.02.164]
3,14 nM,COc1cnc(C2=CCN(C(=O)Cn3nc(-c4ccc(F)c(C)c4)cc3-c3ccccc3)CC2)nc1 [Example 7.02.101]
4,71 nM,CCCc1cc(-c2ccc(F)c(C)c2)nn1CC(=O)N1CC=C(c2ncc(OC)cn2)CC1 [Example 7.02.071]
5,63 nM,Cc1cnc(C2CCN(C(=O)Cn3nc(-c4cccc(C#N)c4)cc3-c3ccccc3)CC2)o1 [Example 7.02.194]
